Test results from publication PMC12564946, “A Stable Delivery System for Meretrix meretrix Derived Immunomodulatory Peptide (QLNWD): Fabrication and Characterization of Glycosylated Protein Nanoparticle” (Marine Drugs, 2025).
Ends that are not written are not given here.

Test: In vitro release of QLNWD, dialysis bag method in enzyme-free SGF/SIF
Assay type: in vitro ADME
Conditions: 37 °C, 120 rpm
Method: The release profile of QLNWD in NPs was evaluated according to a published dialysis method. A 2 mL aliquot of QLNWD (1 mg/mL) nanoparticle solution was introduced into a presoaked dialysis bag (molecular weight cutoff of 3500 Da). The bag was immersed in 20 mL of simulated gastric fluid (SGF, enzyme-free), which had been preheated at 37 °C for 30 min and adjusted to pH 2. The entire system was incubated at 37 °C under continuous agitation at 120 rpm. After 2 h, the pH was adjusted to 7.0, and 20 mL of simulated intestinal fluid (SIF, enzyme-free), also preheated at 37 °C for 30 min and adjusted to pH 7.0, was added to the system. At predetermined intervals, 1 mL of the release medium was sampled and immediately replenished with an equal volume of fresh SGF/SIF. Samples without QLNWD served as the blank control, and the cumulative release was determined as follows:(2) Cumulative release (%)=(V0Cn+Ve∑1n−1Cn−1)/total QLNWD content×100 where V0 refers to the total volume of simulated gastric or intestinal fluid, Cn refers to the concentration of QLNWD at the nth time, and Ve refers to the volume of each sample.

## QLNWD [QLNWD, Gln-Leu-Asn-Trp-Asp]
12 h: 2 h enzyme-free SGF pH 2, then enzyme-free SIF pH 7.0, dialysis bag 3500 Da
  Cumulative release of QLNWD: 79.1%
Initial 2 h in enzyme-free SGF pH 2, dialysis bag 3500 Da, QLNWD 1 mg/mL
  Cumulative release of QLNWD: 38.1%
